# Patent US20190075794A1, “BIODEGRADABLE ANTIMICROBIAL COMPOSITIONS AND USES THEREOF TO COMBAT MICROORGANISMS” (IPABC LTD, priority 2015, published 2019)
# Assays:
# [1] = at 20° C.; cited from earlier work
# E. coli = assay: Assay for antimicrobial activity: test solution incubated with 10^6 CFUs bacteria, neutralised, plated, growth assessed after 24 hours; assay type: cell-based; parameters: key to Growth of E. coli 24 hrs after treatment, 1:100 dilution of bacterial reaction mixture / Growth of E. coli 24 hrs after treatment, 1:1000 dilution of bacterial reaction mixture / Growth of E. coli 24 hrs after treatment, 1:10 dilution of bacterial reaction mixture: + plates with microbial growth; − for plates that had no growth; conditions: for Growth of E. coli 24 hrs after treatment, 1:1000 dilution of bacterial reaction mixture / Growth of E. coli 24 hrs after treatment, 1:100 dilution of bacterial reaction mixture / Growth of E. coli 24 hrs after treatment, 1:10 dilution of bacterial reaction mixture: 10^6 CFUs, 30 min RT; for Concentration at which growth of E. coli is inhibited: 30 min treatment
# Procedure: • APG: AG6210 (Akzo Nobel Surface Chemistry AB) 60% aqueous solution of a 60:40 mixture of decyl-β-D-glucopyranoside and octyl-β-D-glucopyranoside • Decyl-β-D-glucopyranoside—EC number: 259-218-1; CAS number: 54549-25-6 • Octyl-β-D-glucopyranoside—EC number: 414-420-0; CAS number: 108081-06-7 • ε-polylysine: Zhengzhou Bainafo Co., Ltd. […] L(+)-lactic acid. […] CAS number: 79-33-4 • Neutraliser (NF): 30 ml Tween 80, 30 g saponine, 1 g histidine, 1 g cysteine dissolved in 1000 ml water; sterilised by autoclaving. • RBT 24/7: Residual Barrier Technology. Proprietary antimicrobial surface sanitizer. • Culture media: Oxoid plate count agar (CM0463): […]
# [2] = acid(s) alone, printed as cannot inhibit growth when used at up to, combined concentration for lactic + citric
# [3] = Table 1: L(+)-lactic acid alone, listed as 250 mM L(+)-Lactic Acid
# [4] = Table 1: L(+)-lactic acid alone, listed as 500 mM L(+)-Lactic Acid
# [5] = Table 1: L(+)-lactic acid alone, listed as 1M L(+)-Lactic Acid, 1M L(+)-lactic acid
# [6] = Table 1: L(+)-lactic acid alone, listed as 2M L(+)-Lactic Acid, 2M L(+)-lactic acid
Compound,CMC [1],"Growth of E. coli 24 hrs after treatment, 1:1000 dilution of bacterial reaction mixture (E. coli; Table 2: citric acid alone, listed as 50 mM Citric Acid)",Concentration at which growth of E. coli is inhibited (E. coli; [2]) [mM],"Growth of E. coli 24 hrs after treatment, 1:100 dilution of bacterial reaction mixture (E. coli; Table 1: L(+)-lactic acid alone, listed as 100 mM L(+)-Lactic Acid)","Growth of E. coli 24 hrs after treatment, 1:1000 dilution of bacterial reaction mixture (E. coli; Table 1: L(+)-lactic acid alone, listed as 100 mM L(+)-Lactic Acid, 100 mM L(+)-lactic acid)","Growth of E. coli 24 hrs after treatment, 1:10 dilution of bacterial reaction mixture (E. coli; [3])","Growth of E. coli 24 hrs after treatment, 1:100 dilution of bacterial reaction mixture (E. coli; [3])","Growth of E. coli 24 hrs after treatment, 1:1000 dilution of bacterial reaction mixture (E. coli; Table 1: L(+)-lactic acid alone, listed as 250 mM L(+)-Lactic Acid, 250 mM L(+)-lactic acid)","Growth of E. coli 24 hrs after treatment, 1:10 dilution of bacterial reaction mixture (E. coli; [4])","Growth of E. coli 24 hrs after treatment, 1:100 dilution of bacterial reaction mixture (E. coli; [4])","Growth of E. coli 24 hrs after treatment, 1:1000 dilution of bacterial reaction mixture (E. coli; Table 1: L(+)-lactic acid alone, listed as 1M L(+)-Lactic Acid)","Growth of E. coli 24 hrs after treatment, 1:10 dilution of bacterial reaction mixture (E. coli; [5])","Growth of E. coli 24 hrs after treatment, 1:100 dilution of bacterial reaction mixture (E. coli; [5])","Growth of E. coli 24 hrs after treatment, 1:1000 dilution of bacterial reaction mixture (E. coli; Table 1: L(+)-lactic acid alone, listed as 2M L(+)-Lactic Acid)","Growth of E. coli 24 hrs after treatment, 1:10 dilution of bacterial reaction mixture (E. coli; [6])","Growth of E. coli 24 hrs after treatment, 1:100 dilution of bacterial reaction mixture (E. coli; [6])",Concentration at which growth of E. coli is inhibited (E. coli; lactic acid alone)
"CCCCCCCCCCO[C@@H]1O[C@H](CO)[C@@H](O)[C@H](O)[C@H]1O [decylglucoside, Decyl-β-D-glucopyranoside]",approximately 300 ppm,,,,,,,,,,,,,,,,
"O=C(O)CC(O)(CC(=O)O)C(=O)O [Citric Acid, Citric acid]",,+,> 50,,,,,,,,,,,,,,
"C[C@H](O)C(=O)O [L(+)-Lactic Acid, L(+)-lactic acid]",,,> 40,+,+,+,+,−,+,+,−,+,+,−,−,−,at least 1 M
